What is called IC50 is the concentration that gives 50% inhibition.

Data on 29 compounds can be found in patent US11104690B2, “Indazole derivatives useful as inhibitors of diacylglyceride O-acyltransferase 2” (Merck Sharp & Dohme Corp., priority 2016, dated 2021).

Chain of Human DGAT2 (Q96PD7 whole entry): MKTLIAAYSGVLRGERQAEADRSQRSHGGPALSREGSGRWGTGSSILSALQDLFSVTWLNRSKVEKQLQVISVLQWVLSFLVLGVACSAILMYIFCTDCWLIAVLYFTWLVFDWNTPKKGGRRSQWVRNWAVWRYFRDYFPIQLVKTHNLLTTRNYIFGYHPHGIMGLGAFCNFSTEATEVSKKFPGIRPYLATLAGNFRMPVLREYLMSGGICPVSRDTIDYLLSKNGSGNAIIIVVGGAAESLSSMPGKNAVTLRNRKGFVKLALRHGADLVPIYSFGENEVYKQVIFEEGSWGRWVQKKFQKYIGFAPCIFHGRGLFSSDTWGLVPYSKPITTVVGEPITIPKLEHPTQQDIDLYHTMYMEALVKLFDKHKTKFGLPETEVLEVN

For the assay, the target named is Human DGAT2 (Homo sapiens (Human), UniProt Q96PD7). Briefly: DGAT2 Enzymatic Activity Assay (triolein formation, LC/MS/MS). The assay is classed as biochemical. The note with it: hDGAT2 Sf-9 membrane prep; 25 μM diolein, 10 μM oleoyl-CoA; room temperature. In outline:
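Triolein product, measured by LC/MS/MS as a ratio to internal standard, gave % inhibition and 4-parameter IC50. Reaction: 25 μM diolein, 10 μM oleoyl-CoA, 10 ng/μL hDGAT2 Sf-9 membrane, 100 mM Tris.Cl pH 7.0, 20 mM MgCl2, 5% ethanol, room temperature.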
For `CC1(NC(=O)c2ccc3c(-c4ccccc4Cl)nn(-c4ccccn4)c3c2)CCS(=O)(=O)C1` (single isomer, unassigned) [Example 174-A, 3-(2-chlorophenyl)-N-(3-methyl-1,1-dioxidotetrahydrothiophen-3-yl)-1-pyridin-2-yl-1H-indazole-6-carboxamide], 71 nM corresponded to half-maximal inhibition (IC50). This lies in the double-digit nanomolar range.
With `CC1(NC(=O)c2ccc3c(-c4ccccc4Cl)nn(-c4cscn4)c3c2)CCS(=O)(=O)C1` (centres unmarked) [Example 179, 3-(2-Chlorophenyl)-N-(3-methyl-1,1-dioxidotetrahydrothiophen-3-yl)-1-(thiazol-4-yl)-1H-indazole-6-carboxamide] the figure was 285 nM.
As for `CC1(NC(=O)c2ccc3c(-c4cccnc4F)nn(-c4ccc(F)cc4)c3c2)CCS(=O)(=O)C1` (single isomer, unassigned) [Example 154-A, 1-(4-fluorophenyl)-3-(2-fluoropyridin-3-yl)-N-(3-methyl-1,1-dioxidotetrahydrothiophen-3-yl)-1H-indazole-6-carboxamide], 17 nM corresponded to half-maximal inhibition (IC50).
The compound `O=C(N[C@H](CO)c1ccc(C(F)(F)F)nc1)c1ccc2c(-c3ccccc3Cl)nn(-c3ccc(F)cc3)c2c1` [Example 5, 3-(2-chlorophenyl)-1-(4-fluorophenyl)-N-{(1S)-2-hydroxy-1-[6-(trifluoromethyl)pyridin-3-yl]ethyl}-1H-indazole-6-carboxamide] displayed an IC50 of 45 nM.
With `CC(NC(=O)c1ccc2c(-c3ccccc3Cl)nn(-c3ccc(F)cc3)c2c1)c1c[nH]cn1` (racemic) [Example 14, 3-(2-chlorophenyl)-1-(4-fluorophenyl)-N-[1-(1H-imidazol-4-yl)ethyl]-1H-indazole-6-carboxamide] the figure was 78 nM; with `CC(C)(C)NC(=O)c1ccc2c(-c3ccccc3Cl)nn(-c3ccc(F)cc3)c2c1` [Example 15, N-tert-butyl-3-(2-chlorophenyl)-1-(4-fluorophenyl)-1H-indazole-6-carboxamide], 77 nM.
With `COC(=O)C1(NC(=O)c2ccc3c(-c4ccccc4Cl)nn(-c4ccc(F)cc4)c3c2)CCSC1` (racemic) [Example 59, methyl 3-({[3-(2-chlorophenyl)-1-(4-fluorophenyl)-1H-indazol-6-yl]carbonyl}amino)tetra-hydrothiophene-3-carboxylate] the figure was 461 nM; with `CC1(NC(=O)c2ccc3c(-c4cncc(C#N)c4)nn(-c4ccc(F)cc4)c3c2)CCS(=O)(=O)C1` (single isomer, unassigned) [Example 146-A, 3-(5-cyanopyridin-3-yl)-1-(4-fluorophenyl)-N-(3-methyl-1,1-dioxidotetrahydrothiophen-3-yl)-1H-indazole-6-carboxamide], 63 nM.
The figure for `O=C(NC1CC[S+]([O-])C1)c1ccc2c(-c3ccccc3Cl)nn(-c3ccc(F)cc3)c2c1` (single isomer, unassigned) [Example 58-B, 3-(2-chlorophenyl)-1-(4-fluorophenyl)-N-(1-oxidotetrahydrothiophen-3-yl)-1H-indazole-6-carboxamide] is 608 nM; for `CC1(NC(=O)c2ccc3c(-c4cccc(OC(F)F)c4)nn(-c4ccc(F)cn4)c3c2)CCS(=O)(=O)C1` (single isomer, unassigned) [Example 128-A, 3-[3-(difluoromethoxy)phenyl]-1-(5-fluoropyridin-2-yl)-N-(3-methyl-1,1-dioxidotetrahydrothiophen-3-yl)-1H-indazole-6-carboxamide] it is 3.3 nM; for `O=C(N[C@@H]1CCC[C@@H]1O)c1ccc2c(-c3ccccc3Cl)nn(-c3ccc(F)cc3)c2c1` [Example 115, 3-(2-chlorophenyl)-1-(4-fluorophenyl)-N-[(1R,2S)-2-hydroxycyclopentyl]-1H-indazole-6-carboxamide] it is 578 nM.
In turn, `O=C(NC1CCS(=O)(=O)C1)c1ccc2c(-c3c(F)cccc3F)nn(-c3ccc(F)cc3)c2c1` (single isomer, unassigned) [Example 132-A, 3-(2,6-difluorophenyl)-N-(1,1-dioxidotetrahydro-thiophen-3-yl)-1-(4-fluorophenyl)-1H-indazole-6-carboxamide] returned an IC50 of 25 nM. This IC50 is about 23-fold lower than that of the compound before.
In turn, `CC(C)(C)OC(=O)N1CC[C@H](NC(=O)c2ccc3c(-c4ccccc4Cl)nn(-c4ccc(F)cc4)c3c2)C1` [Example 100, tert-butyl (3S)-3-({[3-(2-chlorophenyl)-1-(4-fluorophenyl)-1H-indazol-6-yl]carbonyl}amino)pyrrolidine-1-carboxylate] displayed an IC50 of 12 nM. Compared with the last compound, the IC50 is about 2.1-fold lower.
The figure for `O=C(N[C@@H](CO)c1ccc(C(F)(F)F)nc1)c1ccc2c(-c3ccccc3Cl)nn(-c3ccc(F)cc3)c2c1` [Example 30, 3-(2-chlorophenyl)-1-(4-fluorophenyl)-N-{(1R)-2-hydroxy-1-[6-(trifluoromethyl)pyridin-3-yl]ethyl}-1H-indazole-6-carboxamide] is 48 nM.
The figure for `COc1cc(C#N)cc(-c2nn(-c3ccc(F)cc3)c3cc(C(=O)NC4(C)CCS(=O)(=O)C4)ccc23)c1F` (single isomer, unassigned) [Example 161-B, 3-(5-cyano-2-fluoro-3-methoxyphenyl)-1-(4-fluorophenyl)-N-(3-methyl-1,1-dioxidotetrahydrothiophen-3-yl)-1H-indazole-6-carboxamide] is 28 nM; for `CC(C)(O)C1(NC(=O)c2ccc3c(-c4ccccc4Cl)nn(-c4ccc(F)cc4)c3c2)CCOCC1` [Example 70, 3-(2-chlorophenyl)-1-(4-fluorophenyl)-N-[4-(1-hydroxy-1-methylethyl)tetrahydro-2H-pyran-4-yl]-1H-indazole-6-carboxamide] it is 607 nM.
With `O=C(NCCS(=O)(=O)NC1CCCCC1)c1ccc2c(-c3ccccc3Cl)nn(-c3ccc(F)cc3)c2c1` [Example 53, 3-(2-chlorophenyl)-N-[2-(cyclohexylsulfamoyl)ethyl]-1-(4-fluorophenyl)-1H-indazole-6-carboxamide] the figure was 32 nM; with `CCCCC(NC(=O)c1ccc2c(-c3ccccc3Cl)nn(-c3ccc(F)cc3)c2c1)C(O)C(F)(F)F` (centres unmarked) [Example 73, 3-(2-chlorophenyl)-1-(4-fluorophenyl)-N-[1-(2,2,2-trifluoro-1-hydroxyethyl)pentyl]-1H-indazole-6-carboxamide], 534 nM.
In turn, `CC1(NC(=O)c2ccc3c(-c4cccc(C#N)c4)nn(-c4ccc(F)cc4)c3c2)CCS(=O)(=O)C1` (centres unmarked) [Example 117, 3-(3-cyanophenyl)-1-(4-fluorophenyl)-N-(3-methyl-1,1-dioxidotetrahydrothiophen-3-yl)-1H-indazole-6-carboxamide] displayed a half-inhibitory concentration (IC50) of 7 nM.
The figure for `O=C(NC1(CO)CCCC1)c1ccc2c(-c3ccccc3Cl)nn(-c3ccc(F)cc3)c2c1` [Example 43, 3-(2-chlorophenyl)-1-(4-fluorophenyl)-N-[1-(hydroxymethyl)cyclopentyl]-1H-indazole-6-carboxamide] is 11 nM.
With `CC1(NC(=O)c2ccc3c(-c4ccccc4Cl)nn(-c4ccccn4)c3c2)CCS(=O)(=O)C1` (single isomer, unassigned) [Example 174-B, 3-(2-chlorophenyl)-N-(3-methyl-1,1-dioxidotetrahydrothiophen-3-yl)-1-pyridin-2-yl-1H-indazole-6-carboxamide] the figure was 75 nM.
With `COc1cc(-c2nn(-c3ccc(F)cc3)c3cc(C(=O)NC4CCS(=O)(=O)C4)ccc23)c(Cl)cn1` (single isomer, unassigned) [Example 137-A, 3-(5-chloro-2-methoxypyridin-4-yl)-N-(1,1-dioxidotetrahydrothiophen-3-yl)-1-(4-fluorophenyl)-1H-indazole-6-carboxamide], half-maximal inhibition (IC50) required 5.4 nM.
The figure for `O=C(NC1CC[S+]([O-])C1)c1ccc2c(-c3ccccc3Cl)nn(-c3ccc(F)cc3)c2c1` (single isomer, unassigned) [Example 58-A, 3-(2-chlorophenyl)-1-(4-fluorophenyl)-N-(1-oxidotetrahydrothiophen-3-yl)-1H-indazole-6-carboxamide] is 668 nM; for `O=C(NC1CCC(O)C1)c1ccc2c(-c3ccccc3Cl)nn(-c3ccc(F)cc3)c2c1` (racemic) [Example 83, 3-(2-chlorophenyl)-1-(4-fluorophenyl)-N-(3-hydroxycyclopentyl)-1H-indazole-6-carboxamide] it is 276 nM; for `O=C(NCc1cn2cccnc2n1)c1ccc2c(-c3ccccc3Cl)nn(-c3ccc(F)cc3)c2c1` [Example 35, 3-(2-chlorophenyl)-1-(4-fluorophenyl)-N-(imidazo[1,2-a]pyrimidin-2-ylmethyl)-1H-indazole-6-carboxamide] it is 415 nM.
The compound `CC(C)[C@@H](CO)NC(=O)c1ccc2c(-c3cccc(C4CC4)c3)nn(-c3ccc(F)cn3)c2c1` [Example 124, 3-(3-cyclopropylphenyl)-1-(5-fluoropyridin-2-yl)-N-[(1S)-1-(hydroxymethyl)-2-methylpropyl]-1H-indazole-6-carboxamide] gave a half-maximal inhibitory concentration (IC50) of 4.4 nM. This IC50 is about 94-fold lower than that of the compound before.
With `CN(C)C(=O)c1cccc(-c2nn(-c3ccc(F)cc3)c3cc(C(=O)NC4(C)CCS(=O)(=O)C4)ccc23)c1` (racemic) [Example 148, 3-[3-(dimethylcarbamoyl)phenyl]-1-(4-fluorophenyl)-N-(3-methyl-1,1-dioxidotetrahydrothiophen-3-yl)-1H-indazole-6-carboxamide] the figure was 855 nM; with `O=C(N[C@H]1CCC[C@@H]1O)c1ccc2c(-c3ccccc3Cl)nn(-c3ccc(F)cc3)c2c1` [Example 97, 3-(2-chlorophenyl)-1-(4-fluorophenyl)-N-[(1S,2S)-2-hydroxycyclopentyl]-1H-indazole-6-carboxamide], 155 nM.
The figure for `CC(O)CC(C)(C)NC(=O)c1ccc2c(-c3ccccc3Cl)nn(-c3ccc(F)cc3)c2c1` (racemic) [Example 113, 3-(2-chlorophenyl)-1-(4-fluorophenyl)-N-(3-hydroxy-1,1-dimethylbutyl)-1H-indazole-6-carboxamide] is 41 nM.
